Tests used:
Format in all cases: cell-based, human
[1] = system: caspase 3; test: ELISA caspase 3 in A549 cells; settings: control 6.32
From the text: (§1) Elisa assay was used to determine the concentrations of Human caspases-3, -8, Bax, and Bcl2 in PACA2- and A549-treated cells. Also, the concentrations of caspase-8, Bax, and Bcl2 in MCF7-treated cells were detected. The procedures were followed up according to the instructions described in the following kits; Invitrogen human Caspase-3 Elisa Kit, Catalog KHO1091, DRG® human Caspase-8 ELISA Kit, Catalog (EIA-4863), Human Bax ELISA Kit (ab199080) and Human Bcl-2 ELISA Kit (ab119506) respectively. Shortly, the protocol described in the above kits was as followed; at the beginning, all the reagents, samples and standards were prepared. 100 μl of samples or standard were micro pipetted to each well of micro-well strip and kept at room temperature for 2 h. After washing the micro-well strips three times with washing buffer, the prepared antibody (anti-rabbit-IgG-HRP) at a concentration of 100 μl was added to each well at room temperature for 1 h. Then, the micro-well strips were washed again three times. Afterward, the prepared tetramethyl-benzidine (TMB) solution (100 μl) was added to the micro-well strips and kept for 10 min. […] The absorbance of all samples was measured at a wavelength of 460 nm and compared to that of the standard. Curve fitting software was used to plot a standard curve and the concentrations for the unknown samples were measured from the standard curve.

[2] = system: Bcl2; test: ELISA Bcl2 in A549 cells; settings: control 16.21
From the text: as §1

[3] = system: BAX; test: ELISA BAX in A549 cells; settings: control 5.84
From the text: as §1

[4] = system: IL-8; test: RT-qPCR IL-8 mRNA in A549; settings: A549, compared with Dox.
Protocol: (§2) All of the extractions were conducted on ice with ice-cold reagents. Total RNA from the different cell lines was isolated using Trizol (Invitrogen; Life Technologies, USA) according to the method of Sthoeger et al.. The 260:280 ratios were measured to determine RNA quality after the isolation method was completed according to the manufacturer’s instructions. A high-capacity cDNA reverse transcription kit was used to produce complementary DNA (cDNA) (Applied Biosystems, USA). […] The relative gene expression method (i.e., ΔΔCT) was used to analyze the real-time PCR data, as explained in Applied Biosystem User Bulletin No. 2. Each sample and gene were normalized using the β-actin gene.

[5] = system: caspase 8; test: ELISA caspase 8 in A549 cells; settings: control 5.83
From the text: as §1

[6] = system: lung cell line (A549); test: DNA fragmentation assay, A549; settings: A549, IC50, 24 h, vs negative control (P < 0.01); Dox. higher than 4b
Protocol: The DNA fragmentation assay in a pancreatic cell line (Paca2), breast cancer cell lines (MCF-7) and lung cell line (A549) was performed in concordance with the premises established by Yawata with some modifications. Briefly, after 24 h of exposure of Paca2, MCF-7 and A549 cancer cell lines to the prepared compounds in different Petri dishes (60 × 15 mm, Greiner), the cells were suspended and homogenized in 1 ml of medium and then centrifuged for 10 min at 900 rpm. The genomic DNA was extracted as shown in Yawata. About 1 × 10^6 cells of each tested cancer cell line were treated with the IC50 values of the tested compounds. All the cells were collected via trypsinization and washed with Dulbecco`s Phosphate Buffered Saline. Then, the cells were treated with the lysis buffer containing 5 mM ethylenediaminetetraacetic acid (EDTA), 10 mM Tris (pH 7.4), 0.5% Triton X-100 and 150 mM NaCl for 35 min on ice. […] Finally, the percentage of fragmented DNA was determined by performing gel electrophoresis using 2% agarose gel containing 0.1 μg/ml ethidium bromide.
Pancreatic cancer cell line (Paca2), breast cancer cell line (MCF-7) and lung cancer cell line (A549) were used to determine the percentage of DNA fragmentation after the treatment with IC50 of the tested compounds. […] The percentage of fragmented DNA was measured from the absorbance reading at 600 nm wavelength using the following formula: […]

[7] = system: CDK4; test: RT-qPCR CDK4 mRNA in A549; settings: A549, compared with Dox.
Protocol: as §2

[8] = system: P53; test: RT-qPCR P53 mRNA in Paca2; settings: 17 vs both Dox. and negative control
Protocol: as §2

[9] = system: Casp-3; test: RT-qPCR Casp-3 mRNA in Paca2; settings: 17 vs both Dox. and negative control
Protocol: as §2

[10] = system: Bcl2; test: ELISA Bcl2 in Paca2 cells; settings: control 16.23
From the text: as §1

[11] = system: caspase 8; test: ELISA caspase 8 in Paca2 cells; settings: control 4.85
From the text: as §1

[12] = system: BAX; test: ELISA BAX in Paca2 cells; settings: control 3.86
From the text: as §1

[13] = system: Paca2 cells; test: Annexin V-FITC/PI apoptosis flow cytometry, Paca2; settings: Paca2, 24 h, IC50
Protocol: The percentage of apoptotic cells was detected by using Annexin V-FITC kit catalog number (#K101-25). About 2X10^6 of MCF7 and Paca2 cells were washed in 500 µl of 1 × PBS. Then, the cells were centrifuged and the supernatant was discarded. The cells pellet were re-suspended in the annexin V incubation reagent. The annexin V incubation reagent contained 10 μl binding buffer (10 ×), 10 μl propidium iodide, 1 μl annexin V-FITC, and 79 μl deionized water. The cells were incubated in 100 μl annexin V incubation reagent for 15 min in the dark at room temperature. Finally, the apoptotic cell percentage was detected by flow cytometry using the FITC signal detector (usually FL-1) and PI staining by the phycoerythrin emission signal detector (usually FL-2).

Structure (SMILES): COc1ccc(-c2c(Cl)n(-c3ccc(Cl)cc3Cl)c3ncnc(Cl)c23)cc1OC [Compound 4b, 4,6-dichloro-7-(2,4-dichlorophenyl)-5-(3,4-dimethoxyphenyl)-7H-pyrrolo[2,3-d]pyrimidine]
- caspase 3 level (ELISA) [1]: 12.12 pg/mL
- Bcl2 level (ELISA) [2]: 9.4 pg/mL
- BAX level (ELISA) [3]: 14.83 pg/mL
- IL-8 mRNA level [4]: down-regulated
- caspase 8 level (ELISA) [5]: 16.84 pg/mL
- DNA fragmentation value [6]: increased significantly
- CDK4 mRNA level [7]: down-regulated

Structure (SMILES): COc1cccc2c1C(=O)c1c(O)c3c(c(O)c1C2=O)C[C@@](O)(C(=O)CO)C[C@@H]3O[C@H]1C[C@H](N)[C@H](O)[C@H](C)O1 [Dox, Doxorubicin, reference compound]
- P53 mRNA level [8]: no significant difference
- Casp-3 mRNA level [9]: no significant difference

Structure (SMILES): CN1CCN(c2nc(C(Cl)(Cl)Cl)nc3c2c(-c2ccc(Br)cc2)c(Cl)n3-c2ccc(Cl)cc2Cl)CC1 [Compound 17, 5-(4-bromophenyl)-6-chloro-7-(2,4-dichlorophenyl)-4-(4-methylpiperazin-1-yl)-2-(trichloromethyl)-7H-pyrrolo[2,3-d]pyrimidine]
- Bcl2 concentration (ELISA) [10]: 6.26 pg/mL
- caspase 8 level (ELISA) [11]: 13.86 pg/mL
- P53 mRNA level [8]: up-regulated
- BAX level (ELISA) [12]: 11.85 pg/mL
- Casp-3 mRNA level [9]: up-regulated
- percentage of late apoptotic cells (Q1-UR) ([13]; control 0.54%): 0.86%
- percentage of necrotic cells (Q1-UL) ([13]; control 2.27%): 6.17%
- percentage of early apoptotic cells (Q1-LR) ([13]; control 4.46%): 4.74%
